What was measured:
[1] = tested on: primary dopaminergic neurons; assay: MPP+ toxicity in primary mesencephalic neuronal cultures, TH+ neurite length; type: cell-based; conditions: 10 μM, 24 h
Method: Primary […] neurons were treated with 10 μM MPP+ alone or co-treated with 100-300 nM mito-Met for 24 h. […] FIG. 7B depicts quantification of neurite length of TH+ neurons.
Primary mesencephalic neuronal cultures were treated for 24 h with 10 μM MPP^+ alone or co-treated with 100 and 300 nM mito-Met, dopaminergic neurotoxicity was assessed by TH immunocytochemistry (FIG. 7A) and quantification of neurite length of TH^+ neurons (FIG. 7B). MPP^+ reduced the neurite length of TH-immunoreactive neurons to almost 45% of the vehicle-treated group, indicating significant dopaminergic neurotoxicity.

[2] = tested on: complex I in the mitochondrial respiratory chain; conditions: cited from earlier work
[3] = diabetic patients; cited from earlier work
AMPK = AMPK activation, phosphorylation at T172; type: cell-based; conditions: N27 cells, 10-100 μM, 24 h
Source text: In this example we assessed whether mito-Met alters mitochondrial biogenesis in a dopaminergic cell model.

Tfam = Tfam protein and mRNA expression; conditions: N27 cells, 10-100 μM, 24 h

With `C[n+]1ccc(-c2ccccc2)cc1` [MPP^+] the “neurite length of TH-immunoreactive neurons, of the vehicle-treated group” value [1] was roughly 45%.
For `CN(C)C(=N)N=C(N)N` [metformin, Metformin], the “effect on mitochondrial complex-1 activity” value ([2]; at approximately 0.1 mM) is listed as “does not affect”, the “inhibition of complex I in the mitochondrial respiratory chain” value ([2]; in vitro, millimolar concentrations) is listed as “inhibit” and the tolerated daily doses [3] is listed as 2-3 grams. For the same molecule, the “phosphorylation of AMPK Thr172” value (AMPK) was “significantly increased” and the “protein levels of Tfam” value (Tfam) was “upregulated”.

— patent publication US9956233B2 (priority 2015, dated 2018)
